In patent US20230286930A1, “N -SUBSTITUTED 4-(1,3-ARYLOXAZOLO-2-YL)PHENYL COMPOUNDS FOR THE TREATMENT AND PROPHYLAXIS OF HEPATITIS B VIRUS INFECTION” (Hoffmann-La Roche Inc., priority 2020, published 2023):

How the values were obtained:
[1] = PHH natural infection assay, cytotoxicity (Cell Counting Kit-8); type: cell-based; settings: human
Procedure: (§1) Detailed procedures regarding primary human hepatocyte (PHH) HBV natural infection assay are described as below. One tube of frozen PHH (10 million cells) is thawed in 37° C. water bath and then transferred to 20 mL of PHH thawing medium (Sigma, InVitroGRO HT Medium, Cat. S03319) with gently mixing. The cells were then centrifuged at […] for 5 min, the supernatant was discarded and the tube was refilled with 25 mL of PHH plating medium (Sigma, InVitroGRO CP Medium, Cat. S03317). The tube was shaken very gently to re-suspend all cells, and then 50 μL of cells were transferred to each well 384-well collagen I coated plate with appropriate liquid handling equipment, e.g. Integra VIAFLO384 or Agilent Bravo. The cells were then cultured for 24 hours in a cell incubator. For HBV infection, after PHH attachment on the culture plate, the plating medium was removed and replenished with PHH culture medium containing HBV virus. The PHH culture medium was prepared with Dulbecco's Modified Eagle Medium (DMEM)/F12 (1:1 in volume ratio) containing 10% fetal bovine serum (Gibco, Cat. 10099141), 5 ng/mL human epidermal growth factor (Gibco, Cat.PHG0311L), 20 ng/mL dexamethasone (Sigma, Cat.D4902-100 mg), 250 ng/mL human recombinant insulin (Gibco, Cat.41400045) and 100 U/mL penicillin. HBV virus at 200 genome equivalent (GE) per cell with 4% PEG8000 (Sigma, Cat.P1458) containing culture medium were added to the PHH culture medium for infection. The cells were then cultured for 24 hours in cell incubator. Then the cell culture supernatant was removed. The HBV-infected PHH were cultured with sandwich culture method with PHH culture medium containing 1% DMSO and 0.25 mg/mL matrix gel for 72 hours. The supernatant was then refreshed with PHH culture medium containing different concentrations of testing compounds for two times with 72-hour interval. At the end of treatment, the supernatant was collected for viral markers measurements, including HBsAg, HBeAg, HBV DNA and cytotoxicity. HBsAg and HBeAg were detected using alphalisa method using their specific antibodies. For HBV DNA detection, HBV DNA Quantitative Fluorescence Diagnostic Kit (Sansure Biotech Inc.) was used following the manufacture's protocol. Cytotoxicity was determined using Cell Counting Kit-8 (CCK8, Dojindo Molecular Technologies, Inc.).

HBeAg = experiment: PHH natural infection assay, HBeAg (alphalisa); type: cell-based, HBV; settings: Hepatitis B virus, read-out: HBeAg IC50
Procedure: as §1
(§2) The compounds of the present invention were tested for their capacity to inhibit HBsAg and HBeAg as described herein.

HBsAg = experiment: PHH natural infection assay, HBsAg (alphalisa); type: cell-based, HBV; settings: Hepatitis B virus, read-out: HBsAg IC50
Procedure: as §1, §2

Row | SMILES | CC50 at 144 h [1] | IC50 (HBeAg) | IC50 (HBsAg)
1 | O=C(Nc1ccc(-c2nc3cccnc3o2)cc1)[C@H]1CCS(=O)(=O)C1 (single isomer, unassigned) [Example 86-a] | > 100 µM | 7.32 µM | 4.42 µM
2 | O=C(Nc1ccc(-c2nc3cccnc3o2)cc1)[C@@H]1CCS(=O)(=O)C1 (single isomer, unassigned) [Example 86-b] | > 100 µM | 1.87 µM | 1.95 µM
3 | O=C(Nc1ccc(-c2nc3cc(Cl)ccc3o2)cc1)[C@@H]1CCOC1 (single isomer, unassigned) [Example 87-a] | > 100 µM | 4.05 µM | 4.09 µM
4 | O=C(Nc1ccc(-c2nc3cc(Cl)ccc3o2)cc1)[C@H]1CCOC1 (single isomer, unassigned) [Example 87-b] | > 100 µM | 3.8 µM | 3.96 µM
5 | O=C(Nc1ccc(-c2nc3ccc(F)cc3o2)cc1)C1CCOC1 (stereo not drawn) [Example 1, N-[4-(6-fluoro-1,3-benzoxazol-2-yl)phenyl]tetrahydrofuran-3-carboxamide] | > 100 µM | 0.7 µM | 0.77 µM
6 | CC(O)C(=O)Nc1ccc(-c2nc3ccc(F)cc3o2)cc1 (stereo not drawn) [Example 2, N-[4-(6-fluoro-1,3-benzoxazol-2-yl)phenyl]-2-hydroxy-propanamide] | > 100 µM | 1.29 µM | 1.14 µM
7 | CC(C)(C)C(=O)Nc1ccc(-c2nc3ccc(F)cc3o2)cc1 [Example 3, N-[4-(6-fluoro-1,3-benzoxazol-2-yl)phenyl]-2,2-dimethyl-propanamide] | > 100 µM | 1.63 µM | 1.23 µM
8 | O=C(Nc1ccc(-c2nc3ccc(F)cc3o2)cc1)C1CCSCC1 [Example 4, N-[4-(6-fluoro-1,3-benzoxazol-2-yl)phenyl]tetrahydrothiopyran-4-carboxamide] | > 100 µM | 0.64 µM | 1.08 µM
9 | CC1(C(=O)Nc2ccc(-c3nc4ccc(F)cc4o3)cc2)CCCO1 (stereo not drawn) [Example 5, N-[4-(6-fluoro-1,3-benzoxazol-2-yl)phenyl]-2-methyl-tetrahydrofuran-2-carboxamide] | > 100 µM | 1.46 µM | 1.45 µM
10 | CC(C)(C)C(=O)Nc1ccc(-c2nc3cc(F)ccc3o2)cc1 [Example 6, N-[4-(5-fluoro-1,3-benzoxazol-2-yl)phenyl]-2,2-dimethyl-propanamide] | > 100 µM | 5.55 µM | 1.61 µM
11 | O=C(Nc1ccc(-c2nc3cc(F)ccc3o2)cc1)C1CCSCC1 [Example 7, N-[4-(5-fluoro-1,3-benzoxazol-2-yl)phenyl]tetrahydrothiopyran-4-carboxamide] | > 100 µM | 5.18 µM | 3.86 µM
12 | O=C(Nc1ccc(-c2nc3ccc(Cl)cc3o2)cc1)C1CCOC1 (stereo not drawn) [Example 8, N-[4-(6-chloro-1,3-benzoxazol-2-yl)phenyl]tetrahydrofuran-3-carboxamide] | > 100 µM | 0.82 µM | 0.92 µM
13 | CCCC(=O)Nc1ccc(-c2nc3ccc(Cl)cc3o2)cc1 [Example 9, N-[4-(6-chloro-1,3-benzoxazol-2-yl)phenyl]butanamide] | > 100 µM | 1.46 µM | 1.19 µM
14 | O=C(Nc1ccc(-c2nc3ccc(Cl)cc3o2)cc1)C1CCS(=O)(=O)C1 (stereo not drawn) [Example 10, N-[4-(6-chloro-1,3-benzoxazol-2-yl)phenyl]-1,1-dioxo-thiolane-3-carboxamide] | > 100 µM | 4.38 µM | 6.46 µM
15 | O=C(Nc1ccc(-c2nc3cccc(F)c3o2)cc1)c1ccoc1 [Example 11, N-[4-(7-fluoro-1,3-benzoxazol-2-yl)phenyl]furan-3-carboxamide] | > 100 µM | 5.62 µM | 2.06 µM
16 | CC1(C(=O)Nc2ccc(-c3nc4cccc(F)c4o3)cc2)COC1 [Example 12, N-[4-(7-fluoro-1,3-benzoxazol-2-yl)phenyl]-3-methyl-oxetane-3-carboxamide] | > 100 µM | 0.63 µM | 0.48 µM

Row | SMILES | CC50 at 144 h [1] | IC50 (HBeAg) | IC50 (HBsAg)
17 | CC(C)(O)C(=O)Nc1ccc(-c2nc3cccc(F)c3o2)cc1 [Example 13, N-[4-(7-fluoro-1,3-benzoxazol-2-yl)phenyl]-2-hydroxy-2-methyl-propanamide] | > 100 µM | 0.19 µM | 0.26 µM
18 | O=C(Nc1ccc(-c2nc3cccc(F)c3o2)cc1)C12CC(C1)C2 [Example 14, N-[4-(7-fluoro-1,3-benzoxazol-2-yl)phenyl]bicyclo[1.1.1]pentane-1-carboxamide] | > 100 µM | 0.4 µM | 0.33 µM
19 | O=C(Nc1ccc(-c2nc3cccc(F)c3o2)cc1)C1CCOC1 (stereo not drawn) [Example 15, N-[4-(7-fluoro-1,3-benzoxazol-2-yl)phenyl]tetrahydrofuran-3-carboxamide] | > 100 µM | 1.07 µM | 0.99 µM
20 | O=C(Nc1ccc(-c2nc3cccc(F)c3o2)cc1)C12CC(F)(C1)C2 [Example 16, 3-fluoro-N-[4-(7-fluoro-1,3-benzoxazol-2-yl)phenyl]bicyclo[1.1.1]pentane-1-carboxamide] | > 100 µM | 0.44 µM | 0.48 µM
21 | O=C(Nc1ccc(-c2nc3cccc(F)c3o2)cc1)C1CCS(=O)(=O)C1 (stereo not drawn) [Example 17, N-[4-(7-fluoro-1,3-benzoxazol-2-yl)phenyl]-1,1-dioxo-thiolane-3-carboxamide] | > 100 µM | 0.63 µM | 0.54 µM
22 | O=C(Nc1ccc(-c2nc3cccc(F)c3o2)cc1)C1CCS(=O)(=O)CC1 [Example 18, N-[4-(7-fluoro-1,3-benzoxazol-2-yl)phenyl]-1,1-dioxo-thiane-4-carboxamide] | > 100 µM | 0.96 µM | 0.92 µM
23 | CC(C)(C)C(=O)Nc1ccc(-c2nc3cccc(F)c3o2)cc1 [Example 19, N-[4-(7-fluoro-1,3-benzoxazol-2-yl)phenyl]-2,2-dimethyl-propanamide] | > 100 µM | 0.98 µM | 0.68 µM
24 | O=C(Nc1ccc(-c2nc3cccc(F)c3o2)cc1)C1CC1 [Example 20, N-[4-(7-fluoro-1,3-benzoxazol-2-yl)phenyl]cyclopropanecarboxamide] | > 100 µM | 0.69 µM | 0.7 µM
25 | CC1(C(=O)Nc2ccc(-c3nc4cccc(F)c4o3)cc2)CCOC1 (stereo not drawn) [Example 21, N-[4-(7-fluoro-1,3-benzoxazol-2-yl)phenyl]-3-methyl-tetrahydrofuran-3-carboxamide] | > 100 µM | 0.85 µM | 0.72 µM
26 | O=C(Nc1ccc(-c2nc3cccc(F)c3o2)cc1)C1CC2CCC(C1)O2 (stereo not drawn) [Example 22, N-[4-(7-fluoro-1,3-benzoxazol-2-yl)phenyl]-8-oxabicyclo[3.2.1]octane-3-carboxamide] | > 100 µM | 1.23 µM | 0.96 µM
27 | O=C(Nc1ccc(-c2nc3cccc(F)c3o2)cc1)C1COCCO1 (stereo not drawn) [Example 23, N-[4-(7-fluoro-1,3-benzoxazol-2-yl)phenyl]-1,4-dioxane-2-carboxamide] | > 100 µM | 0.52 µM | 0.65 µM
28 | CC(O)C(=O)Nc1ccc(-c2nc3cccc(F)c3o2)cc1 (stereo not drawn) [Example 24, N-[4-(7-fluoro-1,3-benzoxazol-2-yl)phenyl]-2-hydroxy-propanamide] | > 100 µM | 1.8 µM | 0.94 µM
29 | O=C(Nc1ccc(-c2nc3cccc(F)c3o2)cc1)C1CCC1 [Example 25, N-[4-(7-fluoro-1,3-benzoxazol-2-yl)phenyl]cyclobutanecarboxamide] | > 100 µM | 0.72 µM | 0.95 µM
30 | CC(=O)OC1(C(=O)Nc2ccc(-c3nc4cccc(F)c4o3)cc2)CCOCC1 [Example 26, [4-[[4-(7-fluoro-1,3-benzoxazol-2-yl)phenyl]carbamoyl]tetrahydropyran-4-yl] acetate] | 73.5 µM | 0.84 µM | 1.08 µM
31 | O=C(Nc1ccc(-c2nc3cccc(F)c3o2)cc1)C1CC1(F)F (stereo not drawn) [Example 27, 2,2-difluoro-N-[4-(7-fluoro-1,3-benzoxazol-2-yl)phenyl]cyclopropanecarboxamide] | > 100 µM | 0.71 µM | 1.1 µM
32 | O=C(Nc1ccc(-c2nc3cccc(F)c3o2)cc1)C1CCOCC1 [Example 28, N-[4-(7-fluoro-1,3-benzoxazol-2-yl)phenyl]tetrahydropyran-4-carboxamide] | > 100 µM | 1 µM | 0.96 µM
